Experimental data as given in paper PMC9519446, “Discovery of an Orally Active Benzoxaborole Prodrug Effective in the Treatment of Chagas Disease in Non-human Primates” (Nature microbiology, 2022).
Several values for one entry are separate records, joined by “and”; a condition that tells them apart may be missing. Equal values may be shown once.

Experiment: NHP health screening: hematology (CBC)
Type: in vivo, rhesus macaques (Macaca mulatta)
[1] = treated female macaques, post-dosing bleed, Mean
[2] = treated macaques, end of study bleed, individual animals

Protocol: Under light-anesthesia/sedation, peripheral blood samples were collected from each animal prior to treatment and at 7 time points following. Blood analysis (CBC and serum chemistry assays) and physical exams to evaluate the health of the study animals were performed on each animal prior to the beginning of the study and also at three time points during the treatment protocol (see Supplementary data).

Cc1c(C(=O)N[C@H](C(=O)OCC2CCOCC2)C(C)C)ccc2c1B(O)OC2 [AN15368]
Hct [1]: 40.5389% | Hgb [1]: 13.0722 G/Dl | Lymp [1]: 2.497 10^3/µL | Mch [1]: 23.6944 Pgs | Mchc [1]: 32.2333 G/Dl | Mcv [1]: 73.5333 fL | Mono [1]: 0.2561 10^3/µL | Mpv [1]: 7.553 fL | Neut [1]: 2.507 10^3/µL | Plt [1]: 330.353 10^3/µL | Rbc [1]: 5.521 10^6/µL | Rdw [1]: 12.4778% | Wbc [1]: 5.361 10^3/µL | Baso [2]: 0.01 10^3/µL and 0.02 10^3/µL and 0 10^3/µL | Eos [2]: 0.07 10^3/µL and 0.12 10^3/µL and 0.02 10^3/µL and 0.06 10^3/µL and 0.17 10^3/µL and 0.01 10^3/µL and 0.05 10^3/µL and 0.21 10^3/µL and 0.16 10^3/µL and 0.03 10^3/µL | Hct [2]: 39.5% and 45.3% and 41.2% and 45.7% and 43.1% and 42.5% and 44.2% and 44% and 41.8% and 40.4% and 42.9% and 44.8% and 39.8% | Hgb [2]: 11.9 G/Dl and 14.7 G/Dl and 12.8 G/Dl and 14.6 G/Dl and 13.3 G/Dl and 13.2 G/Dl and 13.6 G/Dl and 13.7 G/Dl and 13.1 G/Dl and 13 G/Dl and 12.9 G/Dl and 13.4 G/Dl and 12.3 G/Dl | Lymp [2]: 1.75 10^3/µL and 3.93 10^3/µL and 1.62 10^3/µL and 3.5 10^3/µL and 2.42 10^3/µL and 0.76 10^3/µL and 1.4 10^3/µL and 2.46 10^3/µL and 2.32 10^3/µL and 1.59 10^3/µL and 0.91 10^3/µL and 2.37 10^3/µL and 1.53 10^3/µL and 1.63 10^3/µL | Mch [2]: 21.9 Pgs and 22.2 Pgs and 23.6 Pgs and 24.2 Pgs and 22.7 Pgs and 21.7 Pgs and 21.5 Pgs and 23.8 Pgs and 22.4 Pgs and 22.3 Pgs and 22.5 Pgs and 22.9 Pgs | Mchc [2]: 30.1 G/Dl and 32.5 G/Dl and 31.1 G/Dl and 31.9 G/Dl and 30.9 G/Dl and 30.8 G/Dl and 29.6 G/Dl and 31.6 G/Dl and 32.2 G/Dl and 29.9 G/Dl | Mcv [2]: 72.3 fL and 68.2 fL and 75.6 fL and 75.7 fL and 73.4 fL and 69.9 fL and 73.5 fL and 73.1 fL and 75.2 fL and 69.2 fL and 74.1 fL and 75.4 fL and 74.4 fL | Mono [2]: 0.25 10^3/µL and 0.23 10^3/µL and 0.17 10^3/µL and 0.37 10^3/µL and 0.36 10^3/µL and 0.48 10^3/µL and 0.3 10^3/µL and 0.21 10^3/µL and 0.2 10^3/µL and 0.44 10^3/µL and 0.26 10^3/µL and 0.29 10^3/µL and 0.12 10^3/µL | Mpv [2]: 6.3 fL and 7.4 fL and 8.1 fL and 9.7 fL and 8.4 fL and 7 fL and 6.5 fL and 7.9 fL and 7.2 fL and 6.9 fL and 7.3 fL and 6.4 fL | Neut [2]: 1.44 10^3/µL and 1.12 10^3/µL and 1.09 10^3/µL and 1.69 10^3/µL and 4.26 10^3/µL and 8.57 10^3/µL and 5.95 10^3/µL and 2.2 10^3/µL and 1.94 10^3/µL and 1.95 10^3/µL and 8.94 10^3/µL and 3.94 10^3/µL and 6.95 10^3/µL and 1.75 10^3/µL | Plt [2]: 418 10^3/µL and 361 10^3/µL and 262 10^3/µL and 246 10^3/µL and 276 10^3/µL and 221 10^3/µL and 490 10^3/µL and 360 10^3/µL and 283 10^3/µL and 257 10^3/µL and 336 10^3/µL and 367 10^3/µL and 446 10^3/µL and 324 10^3/µL | Rbc [2]: 5.46 10^6/µL and 6.64 10^6/µL and 5.45 10^6/µL and 6.04 10^6/µL and 5.87 10^6/µL and 6.08 10^6/µL and 6.01 10^6/µL and 6.02 10^6/µL and 6.11 10^6/µL and 5.56 10^6/µL and 5.84 10^6/µL and 5.79 10^6/µL and 5.94 10^6/µL and 5.35 10^6/µL | Rdw [2]: 13.4% and 11.4% and 12.4% and 11.5% and 12.2% and 12.3% and 12.8% and 11.8% | Wbc [2]: 3.51 10^3/µL and 5.42 10^3/µL and 2.91 10^3/µL and 5.63 10^3/µL and 7.21 10^3/µL and 9.83 10^3/µL and 7.73 10^3/µL and 5.19 10^3/µL and 4.54 10^3/µL and 3.78 10^3/µL and 10.31 10^3/µL and 6.74 10^3/µL and 8.9 10^3/µL and 3.54 10^3/µL | Baso (treated macaques, mid-dosing bleed, individual animals): 0.01 10^3/µL and 0.02 10^3/µL and 0 10^3/µL
